Source: ChEMBL document CHEMBL1156984, “Synthesis and biological evaluation of piperazinyl heterocyclic antagonists of the gonadotropin releasing hormone (GnRH) receptor” (Bioorg Med Chem Lett, 2010)
Converted amounts (≈) assume the structure as drawn.

Legend:
[1] = target: T1, Gonadotropin-releasing hormone receptor (Homo sapiens) (UniProt P30968); assay: Displacement of [125I]D-Trp6-GnRH from human recombinant GNRH receptor at 500 nM by scintillation counting
T1 sequence (whole entry): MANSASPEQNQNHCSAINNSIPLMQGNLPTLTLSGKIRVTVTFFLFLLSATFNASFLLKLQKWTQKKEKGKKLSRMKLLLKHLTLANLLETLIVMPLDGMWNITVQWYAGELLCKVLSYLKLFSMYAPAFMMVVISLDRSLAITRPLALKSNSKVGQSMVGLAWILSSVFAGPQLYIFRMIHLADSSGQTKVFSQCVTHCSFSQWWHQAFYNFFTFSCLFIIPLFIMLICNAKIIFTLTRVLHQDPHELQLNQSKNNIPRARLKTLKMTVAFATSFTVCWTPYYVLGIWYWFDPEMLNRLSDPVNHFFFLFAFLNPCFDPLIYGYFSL

[2] = target: T2, Gonadotropin-releasing hormone receptor (Homo sapiens, UniProt P30968); assay: Displacement of [125I]D-Trp6-GnRH from human recombinant GNRH receptor by scintillation counting
T2 sequence (P30968 whole entry): T1 sequence (whole entry)

[3] = target: T3, Gonadotropin-releasing hormone receptor (Rattus norvegicus, UniProt P30969); assay: Displacement of [125I]D-Trp6-GnRH from rat recombinant GNRH receptor by scintillation counting
T3 sequence (P30969 whole entry): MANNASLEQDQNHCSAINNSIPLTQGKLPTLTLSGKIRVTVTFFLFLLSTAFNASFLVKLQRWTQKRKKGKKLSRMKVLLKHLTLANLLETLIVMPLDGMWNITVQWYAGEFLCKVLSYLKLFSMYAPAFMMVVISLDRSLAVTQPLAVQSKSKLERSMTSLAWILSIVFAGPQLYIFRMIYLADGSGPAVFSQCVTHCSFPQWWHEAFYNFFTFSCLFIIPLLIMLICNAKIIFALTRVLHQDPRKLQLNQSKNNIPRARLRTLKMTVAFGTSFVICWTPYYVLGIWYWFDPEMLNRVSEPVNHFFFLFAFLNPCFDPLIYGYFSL

Cytochrome P450 2D6 = Cytochrome P450 2D6 (Homo sapiens, UniProt P10635); assay: Inhibition of CYP2D6; format: ADME
Sequence of Cytochrome P450 2D6 (P10635 whole entry): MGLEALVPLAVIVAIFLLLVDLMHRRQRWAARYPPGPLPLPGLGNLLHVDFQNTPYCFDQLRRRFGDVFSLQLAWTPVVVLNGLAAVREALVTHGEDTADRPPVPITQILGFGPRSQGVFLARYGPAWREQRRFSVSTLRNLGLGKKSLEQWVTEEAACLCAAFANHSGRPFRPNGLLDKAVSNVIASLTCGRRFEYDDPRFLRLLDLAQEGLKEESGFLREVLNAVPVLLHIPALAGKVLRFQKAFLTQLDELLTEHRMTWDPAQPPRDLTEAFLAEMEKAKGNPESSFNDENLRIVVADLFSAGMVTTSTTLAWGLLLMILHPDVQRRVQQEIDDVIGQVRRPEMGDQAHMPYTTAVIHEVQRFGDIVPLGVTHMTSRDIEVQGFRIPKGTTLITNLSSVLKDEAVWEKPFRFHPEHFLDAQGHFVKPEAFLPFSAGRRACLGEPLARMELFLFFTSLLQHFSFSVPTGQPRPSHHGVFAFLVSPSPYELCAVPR

[4] = Oral bioavailability in orchidectomized Sprague-Dawley rat at 30 mg/kg; format: ADME, organism-based; details: male, in vivo
[5] = Half life in orchidectomized Sprague-Dawley rat at 3 mg/kg, iv; format: ADME, organism-based; parameters: dose 3 mg/kg, route intravenous; details: male, in vivo
[6] = target: T2, Gonadotropin-releasing hormone receptor; assay: Antagonist activity at human recombinant GNRH receptor assessed as inhibition of D-Trp6-GNRH-induced IP accumulation after 1 hr by rapid filtration assay; format: functional
[7] = Cmax in orchidectomized Sprague-Dawley rat at 30 mg/kg, po; format: ADME, organism-based; parameters: dose 30 mg/kg, route oral; details: male, in vivo
[8] = Tmax in orchidectomized Sprague-Dawley rat at 30 mg/kg, po; format: ADME, organism-based; parameters: dose 30 mg/kg, route oral; details: male, in vivo
Cytochrome P450 3A4 = Cytochrome P450 3A4 (Homo sapiens, UniProt P08684); assay: Inhibition of CYP3A4; format: ADME
Sequence of Cytochrome P450 3A4 (P08684 whole entry): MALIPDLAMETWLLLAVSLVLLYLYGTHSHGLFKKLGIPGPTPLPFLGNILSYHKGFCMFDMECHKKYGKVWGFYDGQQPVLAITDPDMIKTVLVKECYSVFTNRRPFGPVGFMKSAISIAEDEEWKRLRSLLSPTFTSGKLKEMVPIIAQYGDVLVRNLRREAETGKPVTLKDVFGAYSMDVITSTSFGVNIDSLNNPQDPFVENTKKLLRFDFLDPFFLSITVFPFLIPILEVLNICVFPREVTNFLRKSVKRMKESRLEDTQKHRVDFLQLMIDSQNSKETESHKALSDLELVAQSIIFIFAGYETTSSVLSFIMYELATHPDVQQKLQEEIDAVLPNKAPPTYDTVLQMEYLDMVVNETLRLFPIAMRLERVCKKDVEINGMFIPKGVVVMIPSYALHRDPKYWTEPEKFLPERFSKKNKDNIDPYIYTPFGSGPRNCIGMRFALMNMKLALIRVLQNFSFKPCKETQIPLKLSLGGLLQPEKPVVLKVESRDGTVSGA

[9] = Solubility at pH 7.4; format: physicochemical; details: buffer
[10] = AUC (0 to infinity) in orchidectomized Sprague-Dawley rat at 3 mg/kg, iv; format: ADME, organism-based; parameters: time infinity, dose 3 mg/kg, route intravenous; details: male, plasma
[11] = target: T3, Gonadotropin-releasing hormone receptor; assay: Antagonist activity at GNRH receptor in rat pituitary cells assessed as inhibition of D-Trp6-GnRH-induced LH accumulation after 3 hrs by RIA; format: functional, cell-based, Pituitary gland cell
[12] = Half life in orchidectomized Sprague-Dawley rat at 30 mg/kg, po; format: ADME, organism-based; parameters: dose 30 mg/kg, route oral; details: male, in vivo
[13] = Volume of distribution at steady state in orchidectomized Sprague-Dawley rat at 3 mg/kg, iv; format: ADME, organism-based; parameters: dose 3 mg/kg, route intravenous; details: male, in vivo, read-out: Vdss
[14] = Permeability by PAMPA method; format: ADME; details: read-out: permeability
[15] = AUC (0 to infinity) in orchidectomized Sprague-Dawley rat at 30 mg/kg, po; format: ADME, organism-based; parameters: time infinity, dose 30 mg/kg, route oral; details: male, plasma
Cytochrome P450 2C9 = Cytochrome P450 2C9 (Homo sapiens, UniProt P11712); assay: Inhibition of CYP2C9; format: ADME
Sequence of Cytochrome P450 2C9 (P11712 whole entry): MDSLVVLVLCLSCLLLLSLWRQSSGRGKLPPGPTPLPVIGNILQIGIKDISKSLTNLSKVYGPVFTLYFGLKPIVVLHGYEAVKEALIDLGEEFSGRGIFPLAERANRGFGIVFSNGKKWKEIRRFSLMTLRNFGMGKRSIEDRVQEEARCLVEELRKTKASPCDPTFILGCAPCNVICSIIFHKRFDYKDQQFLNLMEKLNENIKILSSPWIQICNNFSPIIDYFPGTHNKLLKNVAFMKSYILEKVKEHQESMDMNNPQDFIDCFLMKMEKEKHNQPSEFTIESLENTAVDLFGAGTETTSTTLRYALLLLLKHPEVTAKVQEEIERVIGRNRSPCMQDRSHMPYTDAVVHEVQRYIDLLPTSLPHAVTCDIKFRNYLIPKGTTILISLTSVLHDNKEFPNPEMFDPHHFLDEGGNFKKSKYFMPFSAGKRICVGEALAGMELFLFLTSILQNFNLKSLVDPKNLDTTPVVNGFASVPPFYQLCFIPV

[16] = Clearance in orchidectomized Sprague-Dawley rat at 3 mg/kg, iv; format: ADME, organism-based; parameters: dose 3 mg/kg, route intravenous; details: male, in vivo
[17] = Cmax in orchidectomized Sprague-Dawley rat at 3 mg/kg, iv; format: ADME, organism-based; parameters: dose 3 mg/kg, route intravenous; details: male, in vivo
[18] = Half life in rat liver microsomes; format: ADME, Microsome
[19] = Half life in orchidectomized Sprague-Dawley rat at 1 mg/kg, iv; format: ADME, organism-based; parameters: dose 1 mg/kg, route intravenous; details: male, in vivo
[20] = Cmax in orchidectomized Sprague-Dawley rat at 1 mg/kg, iv; format: ADME, organism-based; parameters: dose 1 mg/kg, route intravenous; details: male, in vivo
[21] = AUC (0 to infinity) in orchidectomized Sprague-Dawley rat at 1 mg/kg, iv; format: ADME, organism-based; parameters: time infinity, dose 1 mg/kg, route intravenous; details: male, plasma

In the case of `CCc1nc(CN2CCN(c3cccc4sc(-c5ccc(C(C)(C)C)cc5)nc34)CC2)c(C)[nH]1`, the inhibition [1] is reported as 70%.
`CCc1nc(CN2CCN(c3cccc4nc(-c5ccc(C(C)(C)C)cc5)cn34)CC2)c(C)[nH]1` gave an IC50 [2] greater than 10 µM.
`CCc1nc(CN2CCN(c3cccc4nc(-c5ccc(C(C)(C)C)cc5)sc34)CC2)c(C)[nH]1` gave an IC50 [2] greater than 10 µM.
In the case of `CCn1cnc(CN2CCN(c3cccn4cc(-c5ccc(C(C)(C)C)cc5)nc34)CC2)c1C`, the IC50 [3] is reported as 0.012 µM, the “inhibition (INH)” value (Cytochrome P450 2D6) is reported as 9% and the bioavailability [4] is reported as 28%. For the same compound, the half-life [5] was 84 min, the IC50 [6] was 0.041 µM and the Cmax [7] was 788 ng/mL. The Tmax [8] was 48 min, the “inhibition (INH)” value (Cytochrome P450 3A4) was 54% and the solubility [9] was 9 µg/mL (≈ 19.7 µM). For the same compound, the AUC(0-inf) [10] was 685 ng·h/mL, the IC50 [2] was 0.0067 µM and the IC50 [11] was 0.42 µM. It also gave a half-life [12] of 66 min, a Vd [13] of 3.5 L/kg and a Papp [14] of 1.1 ×10⁻⁶ cm/s. The AUC(0-inf) [15] was 1950 ng·h/mL, the “inhibition (INH)” value (Cytochrome P450 2C9) was 10% and the clearance [16] was 75.1 mL/min/kg. For the same compound, the Cmax [17] was 1760 ng/mL and the half-life [18] was 11 min.
For `CCn1cnc(CN2CCN(c3cccc4[nH]c(-c5ccc(C(C)(C)C)cc5)nc34)CC2)c1C`, the IC50 [6] was 0.015 µM, the Cmax [7] was 533 ng/mL and the half-life [19] was 24 min. It also gave a solubility [9] of 3 µg/mL (≈ 6.57 µM), a Cmax [20] of 458 ng/mL and an IC50 [2] of 0.0058 µM. For the same compound, the IC50 [11] was 0.2 µM, the half-life [12] was 132 min and the AUC(0-inf) [21] was 124 ng·h/mL. For the same compound, the Papp [14] was 2.7 ×10⁻⁶ cm/s and the AUC(0-inf) [15] was 3440 ng·h/mL.
Compound `CCc1nc(CN2CCN(c3cccc4oc(-c5ccc(C(C)(C)C)cc5)nc34)CC2)c(C)[nH]1` has an inhibition [1] of 61%.
Compound `CC(C)(C)c1ccc(-c2cn3cccc(N4CCN(Cc5ccc6nccnc6c5)CC4)c3n2)cc1` has an IC50 [3] of 0.081 µM, an IC50 [6] of 0.09 µM and an IC50 [2] of 0.047 µM. The IC50 [11] was 3.4 µM.
For `CC(C)(C)c1ccc(-c2nc3c(N4CCN(Cc5ccc6nccnc6c5)CC4)cccc3[nH]2)cc1`, the IC50 [3] was 0.072 µM and the IC50 [11] was 0.36 µM.
For `CCc1nc(CN2CCN(c3cccn4cc(-c5ccc(C(C)(C)C)cc5)nc34)CC2)c(C)[nH]1`, the IC50 [3] was 0.037 µM, the “inhibition (INH)” value (Cytochrome P450 2D6) was 8% and the IC50 [6] was 0.06 µM. The “inhibition (INH)” value (Cytochrome P450 3A4) was 78%, the solubility [9] was 3 µg/mL (≈ 6.57 µM) and the IC50 [2] was 0.0098 µM. For the same compound, the IC50 [11] was 0.92 µM, the Papp [14] was 0.2 ×10⁻⁶ cm/s and the “inhibition (INH)” value (Cytochrome P450 2C9) was 6%. The half-life [18] was 21 min.
Work on `CCc1nc(C)c(CN2CCN(c3cccc4[nH]c(-c5ccc(C(C)(C)C)cc5)nc34)CC2)[nH]1` yielded an IC50 [3] of 0.034 µM, an IC50 [6] of 0.018 µM and a solubility [9] of 20 µg/mL (≈ 43.8 µM). For the same compound, the IC50 [2] was 0.01 µM and the IC50 [11] was 0.16 µM.
Work on `CC(C)(C)c1ccc(-c2cn3cccc(N4CCN(Cc5cnc6ccccc6n5)CC4)c3n2)cc1` yielded an IC50 [3] of 0.029 µM, an IC50 [6] of 0.039 µM and an IC50 [2] of 0.044 µM. The IC50 [11] was 1.5 µM.
Work on `CCc1nc(CN2CCN(c3ccnc4[nH]c(-c5ccc(C(C)(C)C)cc5)nc34)CC2)c(C)[nH]1` yielded an inhibition [1] of 32%.
For `CCn1cc(CN2CCN(c3cccn4cc(-c5ccc(C(C)(C)C)cc5)nc34)CC2)c(=O)[nH]c1=O`, the IC50 [3] was 0.0057 µM, the “inhibition (INH)” value (Cytochrome P450 2D6) was 0% and the IC50 [6] was 0.005 µM. The “inhibition (INH)” value (Cytochrome P450 3A4) was 54%, the solubility [9] was 6 µg/mL (≈ 12.3 µM) and the IC50 [2] was 0.0023 µM. For the same compound, the IC50 [11] was 0.26 µM, the Papp [14] was 1.2 ×10⁻⁶ cm/s and the “inhibition (INH)” value (Cytochrome P450 2C9) was 0%. The half-life [18] was 6 min.
`CCc1nc(CN2CCN(c3cncc4[nH]c(-c5ccc(C(C)(C)C)cc5)nc34)CC2)c(C)[nH]1` gave an IC50 [3] of 0.29 µM and an IC50 [2] of 0.058 µM.
Work on `CC(C)(C)c1ccc(-c2cn3cccc(N4CCN(Cc5c[nH]c(=O)[nH]c5=O)CC4)c3n2)cc1` yielded an IC50 [3] of 0.095 µM, an IC50 [6] of 0.02 µM and an IC50 [2] of 0.0043 µM. It also gave an IC50 [11] of 4.4 µM.
In the case of `CCc1nc(CN2CCN(c3cccc4nc(-c5ccc(C(C)(C)C)cc5)oc34)CC2)c(C)[nH]1`, the IC50 [2] is reported as greater than 10 µM.
